Data as given in patent US6737383B1, “Herbicidal oxadiazolidines” (priority 1999, dated 2004).

Experiments:
[1] = system: wild oat; experiment: Test B pre/postemergence wild oat; type: in vivo, Avena fatua
Method in brief: (§1)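 Herbicidal effect was estimated by eye on a ten-point control scale after plants spent twelve to sixteen days in a greenhouse following soil or foliar treatment. Foliar sprays targeted plants at one to four leaves; all doses were formulated in a non-phytotoxic solvent with surfactant.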

[2] = system: soybean; experiment: Test B pre/postemergence soybean; type: in vivo, Glycine max
Method in brief: as §1

[3] = system: corn; experiment: Test B pre/postemergence corn; type: in vivo, Zea mays
Method in brief: as §1

[4] = system: pigweed; experiment: Test B pre/postemergence pigweed; type: in vivo, Amaranthus retroflexus
Method in brief: as §1

[5] = system: sugar beet; experiment: Test B pre/postemergence sugar beet; type: in vivo, Beta vulgaris
Method in brief: as §1

[6] = system: morningglory; experiment: Test B pre/postemergence morningglory; type: in vivo, Ipomoea hederacea
Method in brief: as §1

[7] = system: purple nutsedge; experiment: Test B pre/postemergence purple nutsedge; type: in vivo, Cyperus rotundus
Method in brief: as §1

[8] = system: giant foxtail; experiment: Test B pre/postemergence giant foxtail; type: in vivo, Setaria faberii
Method in brief: as §1

[9] = system: blackgrass; experiment: Test B pre/postemergence blackgrass; type: in vivo, Alopecurus myosuroides
Method in brief: as §1

[10] = system: rape; experiment: Test B pre/postemergence rape; type: in vivo, Brassica napus
Method in brief: as §1

[11] = system: velvetleaf; experiment: Test B pre/postemergence velvetleaf; type: in vivo, Abutilon theophrasti
Method in brief: as §1

[12] = system: crabgrass; experiment: Test B pre/postemergence crabgrass; type: in vivo, Digitaria sanguinalis
Method in brief: as §1

[13] = system: bamyardgrass; experiment: Test B flood test barnyardgrass; type: in vivo, Echinochloa crus-galli
Method in brief: (§2)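 Read-out is a visual response score from 0 (no effect) to 10 (complete control), assigned by comparison with untreated controls. Treatment was applied at the 2-leaf stage, and plants stayed in the greenhouse for twelve to sixteen days before scoring.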

[14] = system: surinam grass; experiment: Test B pre/postemergence surinam grass; type: in vivo, Brachiaria decumbens
Method in brief: as §1

[15] = system: smallflower flatsedge; experiment: Test B flood test smallflower flatsedge; type: in vivo, Cyperus difformis
Method in brief: as §2

[16] = system: cocklebur; experiment: Test B pre/postemergence cocklebur; type: in vivo, Xanthium strumarium
Method in brief: as §1

[17] = Preemergence, Rate 62 g/ha, scale of 0 to 10 where 0 is no effect and 10 is complete control
[18] = Preemergence, Rate 250 g/ha, scale of 0 to 10 where 0 is no effect and 10 is complete control
[19] = Preemergence, Rate 500 g/ha, scale of 0 to 10 where 0 is no effect and 10 is complete control
[20] = Rate 62 g/ha, Postemergence, scale of 0 to 10 where 0 is no effect and 10 is complete control
[21] = Rate 125 g/ha, Postemergence, scale 0 to 10
[22] = Rate 125 g/ha, Preemergence, scale of 0 to 10 where 0 is no effect and 10 is complete control
[23] = Rate 500 g/ha, Postemergence, scale 0 to 10, 0 no effect, 10 complete control
[24] = Rate 62 g/ha, headed Pre-emergence (flood test species), scale 0 to 10 (0 no effect, 10 complete control)
[25] = Rate 125 g/ha, Pre-emergence, flood test species, scale 0 to 10 where 0 is no effect and 10 is complete control
[26] = Rate 250 g/ha, Pre-emergence, flood-test species, scale 0 to 10, 0 is no effect, 10 is complete control
[27] = Rate 500 g/ha, Pre-emergence, flood test species, scale 0 to 10 (0 no effect, 10 complete control)

CCc1ccc(N(C(=O)n2oc(=O)n(-c3ccccc3C)c2=O)C(C)C)cc1 [Compound 230]
Wild oats plant response rating [1, 17]: 0 | Wild oats plant response rating [1, 18]: 0 | Plant response rating, Wild oats [1, 19]: 0 | Wild oats plant response rating [1, 20]: 0 | Wild oats plant response rating [1, 21]: 0 | Wild oats plant response rating [1, 22]: 0 | Plant response rating (0 to 10; 0 is no effect, 10 is complete control), Wild oats ([1]; Rate 250 g/ha, Postemergence): 0 | Wild oats plant response rating [1, 23]: 0 | Soybean plant response rating [2, 17]: 0 | Soybean plant response rating [2, 18]: 0 | Plant response rating, Soybean [2, 19]: 0 | Soybean plant response rating [2, 20]: 0 | Soybean plant response rating [2, 21]: 0 | Soybean plant response rating [2, 22]: 0 | Plant response rating (0 to 10; 0 is no effect, 10 is complete control), Soybean ([2]; Rate 250 g/ha, Postemergence): 4 | Soybean plant response rating [2, 23]: 5 | Corn plant response rating [3, 17]: 0 | Corn plant response rating [3, 18]: 0 | Plant response rating, Corn [3, 19]: 0 | Corn plant response rating [3, 20]: 0 | Corn plant response rating [3, 21]: 0 | Corn plant response rating [3, 22]: 0 | Plant response rating (0 to 10; 0 is no effect, 10 is complete control), Corn ([3]; Rate 250 g/ha, Postemergence): 0 | Corn plant response rating [3, 23]: 0 | Redroot pigweed plant response rating [4, 17]: 0 | Redroot pigweed plant response rating [4, 18]: 0 | Plant response rating, Redroot pigweed [4, 19]: 0 | Redroot pigweed plant response rating [4, 20]: 0 | Redroot pigweed plant response rating [4, 21]: 0 | Redroot pigweed plant response rating [4, 22]: 0 | Plant response rating (0 to 10; 0 is no effect, 10 is complete control), Redroot pigweed ([4]; Rate 250 g/ha, Postemergence): 0 | Redroot pigweed plant response rating [4, 23]: 0 | Sugarbeets plant response rating [5, 17]: 0 | Sugarbeets plant response rating [5, 18]: 0 | Plant response rating, Sugarbeets [5, 19]: 0 | Sugarbeets plant response rating [5, 20]: 0 | Sugarbeets plant response rating [5, 21]: 0 | Sugarbeets plant response rating [5, 22]: 0 | Plant response rating (0 to 10; 0 is no effect, 10 is complete control), Sugarbeets ([5]; Rate 250 g/ha, Postemergence): 0 | Sugarbeets plant response rating [5, 23]: 0 | Morningglory plant response rating [6, 17]: 0 | Morningglory plant response rating [6, 18]: 0 | Plant response rating, Morningglory [6, 19]: 2 | Morningglory plant response rating [6, 20]: 0 | Morningglory plant response rating [6, 21]: 2 | Morningglory plant response rating [6, 22]: 0 | Plant response rating (0 to 10; 0 is no effect, 10 is complete control), Morningglory ([6]; Rate 250 g/ha, Postemergence): 2 | Morningglory plant response rating [6, 23]: 7 | Nutsedge plant response rating [7, 17]: 0 | Nutsedge plant response rating [7, 18]: 0 | Plant response rating, Nutsedge [7, 19]: 0 | Nutsedge plant response rating [7, 20]: 0 | Nutsedge plant response rating [7, 21]: 0 | Nutsedge plant response rating [7, 22]: 0 | Plant response rating (0 to 10; 0 is no effect, 10 is complete control), Nutsedge ([7]; Rate 250 g/ha, Postemergence): 0 | Nutsedge plant response rating [7, 23]: 0 | Giant foxtail plant response rating [8, 17]: 2 | Giant foxtail plant response rating [8, 18]: 8 | Plant response rating, Giant foxtail [8, 19]: 9 | Giant foxtail plant response rating [8, 20]: 0 | Giant foxtail plant response rating [8, 21]: 0 | Giant foxtail plant response rating [8, 22]: 2 | Plant response rating (0 to 10; 0 is no effect, 10 is complete control), Giant foxtail ([8]; Rate 250 g/ha, Postemergence): 0 | Giant foxtail plant response rating [8, 23]: 1 | Blackgrass plant response rating [9, 17]: 0 | Blackgrass plant response rating [9, 18]: 0 | Plant response rating, Blackgrass [9, 19]: 2 | Blackgrass plant response rating [9, 20]: 0 | Blackgrass plant response rating [9, 21]: 0 | Blackgrass plant response rating [9, 22]: 0 | Plant response rating (0 to 10; 0 is no effect, 10 is complete control), Blackgrass ([9]; Rate 250 g/ha, Postemergence): 0 | Blackgrass plant response rating [9, 23]: 0 | Rape plant response rating [10, 17]: 0 | Rape plant response rating [10, 18]: 0 | Plant response rating, Rape [10, 19]: 0 | Rape plant response rating [10, 20]: 0 | Rape plant response rating [10, 21]: 0 | Rape plant response rating [10, 22]: 0 | Plant response rating (0 to 10; 0 is no effect, 10 is complete control), Rape ([10]; Rate 250 g/ha, Postemergence): 0 | Rape plant response rating [10, 23]: 0 | Velvetleaf plant response rating [11, 17]: 0 | Velvetleaf plant response rating [11, 18]: 0 | Plant response rating, Velvetleaf [11, 19]: 0 | Velvetleaf plant response rating [11, 20]: 0 | Velvetleaf plant response rating [11, 21]: 0 | Velvetleaf plant response rating [11, 22]: 0 | Plant response rating (0 to 10; 0 is no effect, 10 is complete control), Velvetleaf ([11]; Rate 250 g/ha, Postemergence): 0 | Velvetleaf plant response rating [11, 23]: 0 | Crabgrass plant response rating [12, 17]: 1 | Crabgrass plant response rating [12, 18]: 7 | Plant response rating, Crabgrass [12, 19]: 9 | Crabgrass plant response rating [12, 20]: 0 | Crabgrass plant response rating [12, 21]: 0 | Crabgrass plant response rating [12, 22]: 1 | Plant response rating (0 to 10; 0 is no effect, 10 is complete control), Crabgrass ([12]; Rate 250 g/ha, Postemergence): 0 | Crabgrass plant response rating [12, 23]: 2 | Barnyardgrass plant response rating [13, 24]: 0 | Barnyardgrass plant response rating [13, 25]: 0 | Barnyardgrass plant response rating [13, 26]: 0 | Barnyardgrass plant response rating [13, 27]: 0 | B. signalgrass plant response rating [14, 17]: 0 | B. signalgrass plant response rating ([14]; Preemergence, Rate 250 g/ha, scale 0 to 10, 0 is no effect, 10 is complete control): 0 | Plant response rating, B. signalgrass [14, 19]: 0 | B. signalgrass plant response rating [14, 20]: 0 | B. signalgrass plant response rating ([14]; Rate 125 g/ha, Postemergence, scale 0 (no effect) to 10 (complete control)): 0 | B. signalgrass plant response rating [14, 22]: 0 | Plant response rating (0 to 10; 0 is no effect, 10 is complete control), B. signalgrass ([14]; Rate 250 g/ha, Postemergence): 0 | B. signalgrass plant response rating [14, 23]: 0 | S. Flatsedge plant response rating [15, 24]: 0 | S. Flatsedge plant response rating [15, 25]: 0 | S. Flatsedge plant response rating [15, 26]: 0 | S. Flatsedge plant response rating [15, 27]: 0 | Cocklebur plant response rating [16, 17]: 0 | Cocklebur plant response rating [16, 18]: 0 | Plant response rating, Cocklebur [16, 19]: 0 | Cocklebur plant response rating [16, 20]: 0 | Cocklebur plant response rating [16, 21]: 0 | Cocklebur plant response rating [16, 22]: 0 | Plant response rating (0 to 10; 0 is no effect, 10 is complete control), Cocklebur ([16]; Rate 250 g/ha, Postemergence): 0 | Cocklebur plant response rating [16, 23]: 0
